Format in all cases: functional
The species named for assay [1] is Rattus norvegicus. Briefly: Ability to enhance stimulated release of AcCh from striatum region of rat brain.
The test system of assay [2] is Rattus norvegicus. The assay can be described thus: Tested for rat passive avoidance hypoxia induced amnesia at 1.0 mg/kg administered subcutaneously. The settings on record: route subcutaneous.
In assay [3] the test system is Rattus norvegicus. The assay can be described thus: Tested for rat passive avoidance hypoxia induced amnesia at 0.3 mg/kg administered subcutaneously. The note with it: route subcutaneous.
For assay [4], the system named is Rattus norvegicus. The assay can be described thus: Tested for rat passive avoidance hypoxia induced amnesia at 30.0 mg/kg administered subcutaneously (p<0.05). The settings on record: route subcutaneous.
Assay [5] has as its system Rattus norvegicus. Briefly: Tested for rat passive avoidance hypoxia induced amnesia at 100 mg/kg administered subcutaneously. The note with it: route subcutaneous.
Assay [6] concerns Rattus norvegicus. The assay can be described thus: Tested for rat passive avoidance hypoxia induced amnesia at 0.1 mg/kg administered subcutaneously. The note with it: route subcutaneous.
For assay [7], the system named is Rattus norvegicus. The assay can be described thus: Tested for rat passive avoidance hypoxia induced amnesia at 10.0 mg/kg administered subcutaneously (p<0.025). The note with it: route subcutaneous.
Assay [8] is filed under the species Rattus norvegicus. Briefly: Tested for rat passive avoidance hypoxia induced amnesia (no hypoxia).
In assay [9] the test system is Rattus norvegicus. Briefly: Tested for rat passive avoidance hypoxia induced amnesia at 3.0 mg/kg administered subcutaneously (p<0.025). The settings on record: route subcutaneous.

`CCOC(=O)CCC1(Cc2ccncc2)C(=O)N(c2ccccc2)c2ccccc21.Cl` (centres undefined): the Release in the assay listed under Rattus norvegicus [1] came to 57%.
Still for that read-out and setting: the figure for `CCCS(=O)(=O)CCCCC1(Cc2ccncc2)C(=O)N(c2ccccc2)c2ccc(Cl)cc21.Cl` (centres undefined) is 8%; for `Cl.O=C1N(c2ccccc2)c2ccccc2C1(CCO)Cc1ccncc1` (centres undefined) it is 12%; for `CC(=O)CCCC1(Cc2ccncc2)C(=O)N(c2ccccc2)c2ccccc21.Cl` (centres undefined) it is 18%.
Still for that read-out and setting: the figure for `Cl.N#CCC1(Cc2ccncc2)C(=O)N(c2ccccc2)c2ccccc21` (centres undefined) is 11%.
With `CC(=O)OCCCCC1(Cc2ccncc2)C(=O)N(c2ccccc2)c2ccccc21.Cl` (centres undefined), the Release in the assay listed under Rattus norvegicus [1] is given as 27%.
On the same count and under the same terms, the figure for `CCOCCCCC1(Cc2ccncc2)C(=O)N(c2ccccc2)c2ccccc21.Cl` (centres undefined) is 17%; for `CCOC(=O)/C=C/CC1(Cc2ccncc2)C(=O)N(c2ccccc2)c2ccccc21.Cl` (centres undefined) it is 41%.
Consider `CCOC(=O)CC1(Cc2ccncc2)C(=O)N(c2ccccc2)c2ccccc21.Cl` (centres undefined), for which the Release in the assay listed under Rattus norvegicus [1] is on record as 21%.
The same measure, in the same setting: as for `CCCCCCC1(Cc2ccncc2)C(=O)N(c2ccccc2)c2ccccc21` (centres undefined), the figure is 6%; as for `COC(=O)CCC1(Cc2ccncc2)C(=O)N(c2ccccc2)c2ccccc21.Cl` (centres undefined), 51%; as for `Cl.O=C(CCCC1(Cc2ccncc2)C(=O)N(c2ccccc2)c2ccccc21)c1ccc(F)cc1` (centres undefined), 29%.
Turning to `O=C1N(c2ccccc2)c2ccccc2C1(CCCO)Cc1ccncc1` (centres undefined), in the assay listed under Rattus norvegicus [1], the Release stood at 27%.
Consider `CCOC(=O)CCCC1(Cc2ccncc2)C(=O)N(c2ccccc2)c2ccccc21.Cl` (stereo in doubt; 8), for which the Median retension latency with Rattus norvegicus [2] stood at 89.5; with Rattus norvegicus [3] it was 37.5; in the assay with Rattus norvegicus [4] it was 201; in the assay on Rattus norvegicus [5] it was 34; in the assay with Rattus norvegicus [6], 79.5; in the assay with Rattus norvegicus [7], 136. Moreover, the results for the Median retension latency in the assay listed under Rattus norvegicus [8] and in the assay on Rattus norvegicus [9] were 300 and 112, respectively. For the same molecule, the Release in the assay listed under Rattus norvegicus [1] was determined as 99%.
For `CCOC(=O)CCCCC1(Cc2ccncc2)C(=O)N(c2ccccc2)c2ccccc21.Cl` (centres undefined), the Release in the assay filed under Rattus norvegicus [1] is 3%.
`O=C1C(Cc2ccncc2)c2ccccc2N1c1ccccc1` (centres undefined): the Release in the assay listed under Rattus norvegicus [1] worked out at 0%.
As for `Cl.N#CCCCC1(Cc2ccncc2)C(=O)N(c2ccccc2)c2ccccc21` (centres undefined), the Release in the assay filed under Rattus norvegicus [1] stood at 74%.
Consider `Cl.N#CCCCCCC1(Cc2ccncc2)C(=O)N(c2ccccc2)c2ccccc21` (centres undefined), for which the Release in the assay filed under Rattus norvegicus [1] is on record as 74%.
For the molecule `O=C1N(c2ccccc2)c2ccccc2C1(O)Cc1ccncc1` (centres undefined), the Release in the assay listed under Rattus norvegicus [1] amounted to 8%.
On to `CCCSCCCCC1(Cc2ccncc2)C(=O)N(c2ccccc2)c2ccccc21.Cl` (centres undefined), for which the Release in the assay filed under Rattus norvegicus [1] stood at 24%.
With `Cl.N#CCCCCC1(Cc2ccncc2)C(=O)N(c2ccccc2)c2ccccc21` (centres undefined), in the assay listed under Rattus norvegicus [1], the Release came to 133%.
Regarding `CCOC(=O)CCCC1(Cc2ccncc2)C(=O)N(c2ccccc2)c2ccccc21.Cl` (single isomer, unassigned; (-)), the Release in the assay listed under Rattus norvegicus [1] amounted to 3%.
Take `Cl.O=C(CCC1(Cc2ccncc2)C(=O)N(c2ccccc2)c2ccccc21)c1ccc(F)cc1` (centres undefined): in the assay listed under Rattus norvegicus [1], the Release is recorded as 11%.
For the molecule `Cl.O=C(O)CCCC1(Cc2ccncc2)C(=O)N(c2ccccc2)c2ccccc21` (centres undefined), the Release in the assay listed under Rattus norvegicus [1] came to 0%.
`Cl.O=C(O)CC1(Cc2ccncc2)C(=O)N(c2ccccc2)c2ccccc21` (centres undefined): the Release in the assay filed under Rattus norvegicus [1] is -2%.
In the case of `Cl.N#CCCCCCCC1(Cc2ccncc2)C(=O)N(c2ccccc2)c2ccccc21` (centres undefined), the Release in the assay filed under Rattus norvegicus [1] is on record as 19%.
Consider `Cl.O=C1N(c2ccccc2)c2ccccc2C1(CCCCO)Cc1ccncc1` (centres undefined), for which the Release in the assay listed under Rattus norvegicus [1] came to 29%.
In the case of `CCOC(=O)CCCC1(Cc2ccncc2)C(=O)N(c2ccccc2)c2ccccc21.Cl` (racemic), the Release in the assay filed under Rattus norvegicus [1] came out at 109%.
Consider `CN(C)CCC1(Cc2ccncc2)C(=O)N(c2ccccc2)c2ccccc21.Cl.Cl` (centres undefined), for which the Release in the assay listed under Rattus norvegicus [1] was determined as 3%.
Turning to `O=C1N(c2ccccc2)c2ccccc2C1(Cc1ccncc1)Cc1ccncc1` [LINOPIRDINE], the Release in the assay filed under Rattus norvegicus [1] is 100%.
Regarding `Cl.NC(=O)CCCC1(Cc2ccncc2)C(=O)N(c2ccccc2)c2ccccc21` (centres undefined), the Release in the assay filed under Rattus norvegicus [1] is 26%.
